{
  "source": "patent US20260232752A1",
  "about": "“COMBINATION THERAPY METHODS, COMPOSITIONS AND KITS” (Accure Therapeutics, S.L., priority 2019, published 2026)",
  "key": {"[1]": {"tested_on": "EAE in C57BL6 mice immunized with MOG35-55", "assay": "Example 4: BN201 and STAT3 inhibitor combination, chronic phase of EAE", "assay_type": "in vivo, mouse", "settings": "BN201 50 mg/kg i.p. alone (optimal), from day 34 to day 54", "procedure": "Effect during the chronic phase of the disease in the animal model of Multiple Sclerosis (i.e., EAE in C57BL6 mice immunized with MOG35-55)\nEfficacy and safety of combination therapy with optimal doses of BN201 (50 mg/kg) and S31-201 (5 mg/kg) in the progression of chronic EAE in mice.\nStarting the chronic phase of the disease (by day 34) mice were administered: • the STAT3 inhibitor S31-201 (group A, 7 mice), • BN201 (group B, 6 mice), or • a combination thereof (group C, 6 mice) once a day for six days per week at optimal dosages (5 mg/kg for S31-201, 50 mg/kg for BN201).\nS31-201 and BN201 were administered via i.p. injection in a saline vehicle at a volume of 5 mL/kg. Control mice received vehicle only via both oral and i.p. injection (group D, 6 mice) or nothing at all (group E, 2 mice). Mice were treated from day 34 (chronic EAE stage) until the end of the experiment on day 54.\nThe combination of BN201 and the STAT3-inhibitor S31-201 was evaluated for its effect during the chronic phase of the disease in the animal model of Multiple Sclerosis (i.e., EAE in C57BL6 mice immunized with MOG35-55). The objective of the study was to evaluate the efficacy and safety of combination therapy with optimal doses of BN201 (50 mg/kg) and 531-201 (5 mg/kg) in the progression of chronic EAE in mice. […]"}, "[2]": {"tested_on": "experimental autoimmune encephalomyelitis (EAE) mouse model", "assay": "Study EAE-C03: clinical score in EAE mouse model, treatment in chronic phase", "assay_type": "in vivo", "settings": "after 17 days of treatment, treatment started in chronic phase", "procedure": "Three in vivo studies supporting the medical plausibility of BN201 in the treatment of MS and optic neuritis were performed. These studies sought to test the neuroprotective effect of BN201 and were conducted in the neurodegenerative and demyelinating experimental autoimmune encephalomyelitis (EAE) mouse model. Immune response to Myelin Basic Protein (MBP) or Myelin Proteolipid Protein (PLP) induces lesions located predominantly in the spinal cord whereas immunization with Myelin Oligodendrocyte Glycoprotein (MOG) generates lesions located predominantly in the optic nerve and spinal cord. In the literature, the EAE model is commonly used as a model of MS and optic neuritis, since it can cause irreversible visual loss (Kezuka et al, Analysis of the pathogenesis of experimental autoimmune optic neuritis. J Biomed Biotechnol. 2011; 2011:294046; Guo et al, Decreased neural stem/progenitor cell proliferation in mice with chronic/nonremitting experimental autoimmune encephalomyelitis. Neurosignals. 2010; 18(1):1-8).\nStudy EAE-C03: daily i.p. administration of BN201 at two different concentrations was tested versus placebo according to the following experimental design: • EAE affected placebo-treated animals (pathological control group); • EAE-affected animals treated with BN201 at 50 mg/kg dose and • EAE-affected animals treated with BN201 at 100 mg/kg dose. […]"}},
  "data": [
    {"smiles": "CC(C)CN(CC(=O)N(CCCN1CCCC1=O)CC(N)=O)C(=O)CNCCc1ccccc1F", "note": "[BN201, [N-(2-(2′-Fluorophenyl)ethyl)glycyl]-[N-(2-methylpropyl)glycyl]-N-[3-(2′-oxopyrrolidinyl)-propyl]glycinamide]", "values": [
      {"measurement": "course of EAE in chronic phase (clinical score)", "setting": "[1]", "result": "not efficacious"},
      {"measurement": "clinical score compared to placebo", "setting": "[2]; 50 mg/kg daily i.p.", "result": "significantly decreased the clinical score"},
      {"measurement": "clinical score compared to placebo", "setting": "[2]; 100 mg/kg daily i.p.", "result": "significantly decreased the clinical score"}
    ]}
  ]
}
